The source of these data is EP0238060B1, “Cephalosporin derivatives, processes for their preparation and antibacterial agents” (Banyu Pharmaceutical Co., Ltd., priority 1986, dated 1987).

The subject of test [1] is Enterobacter cloacae GN 5797. In words: Induction of β-lactamase by β-lactam antibiotics. Type of test: cell-based. The note with it: induced β-lactamase activity of crude enzyme; Concentration 10 µg/ml; Incubation time 3 hr; Substrate: 100 µM of cephaloridine. The method, then:
The assay method for induction of β-lactamase by β-latam antibiotics was as follows: The test organism, Enterobacter cloacae GN 5797, was grown overnight in Mueller Hinton broth (Dlfco Laboratories, Detroit, Mich.) at 37°C. The culture was diluted l0-fold into 20 ml of the flesh medium and incubated with shaking at 37°C. After 2 hours of incubation, antibiotics were added to final concentrations of 50 µg/ml, l0 µg/ml and l µg/ml, and the incubation was continued. At l hour intervals after the addition of antibiotic, 5 ml of sample was taken, and immediately added with 0.l ml of 50 mM sodium azide. The cells were harvested and washed with 50 mM phosphate buffer (pH 7.0). The cells were suspended in 5 ml of 50 mM phosphate buffer and disrupted with a sonicater in an ice-water bath. The broken cells were centrifuged at l6,500 G for 40 minutes at 4°C, and the resulting supernatant fluid was used as the crude enzyme. β-Lactamase activity was determined by a spectrophotometric method (Antmicrob. Agents Chemother. 17, 355-358, 1980) with cephaloridine as substrate. The concentration of protein was determined by the method of Lowry (J. Biol. Chem. 193, 265-275, 1951).

The subject of test [2] is A.calcoaceticus No. 4. Nature of the test: In vitro antibacterial activity, agar plate dilution method (MIC). Format: cell-based. The note with it: Acinetobacter calcoaceticus; A.calcoaceticus No. 4; Mueller Hinton agar, inoculum 10⁶ CFU/ml, 37°C, 16 hours; read-out: Minimum Inhibitory Concentration (MIC: µg/ml).
The test system of test [3] is C.freundii GN346/16. Described as above. Type of test: cell-based. The note with it: Citrobacter freundii; C.freundii GN346/16; Mueller Hinton agar, inoculum 10⁶ CFU/ml, 37°C, 16 hours; read-out: Minimum Inhibitory Concentration (MIC: µg/ml).
Test [4] has as its system C.freundii GN346. The test is described as above. Type of test: cell-based. The following applies: Citrobacter freundii; C.freundii GN346 (β-Lactamase-producing strain); Mueller Hinton agar, inoculum 10⁶ CFU/ml, 37°C, 16 hours; read-out: Minimum Inhibitory Concentration (MIC: µg/ml).
Test [5] relates to E.cloacae 963. The test is described as above. The note with it: Enterobacter cloacae; E.cloacae 963; Mueller Hinton agar, inoculum 10⁶ CFU/ml, 37°C, 16 hours; read-out: Minimum Inhibitory Concentration (MIC: µg/ml). Format: cell-based.
The subject of test [6] is E.cloacae Nek 39. Described as above. The note with it: Enterobacter cloacae, NEK39; E.cloacae Nek 39 (β-Lactamase-producing strain); Mueller Hinton agar, inoculum 10⁶ CFU/ml, 37°C, 16 hours; read-out: Minimum Inhibitory Concentration (MIC: µg/ml). Format: cell-based.
Test [7] concerns E.coli CSH(RE45). Described as above. Type of test: cell-based. The following applies: Escherichia coli, 16 h, read-out: Minimum Inhibitory Concentration (MIC: µg/ml).
Test [8] concerns E.coli CSH2 (RK1). The test is described as above. Type of test: cell-based. The following applies: Escherichia coli, 16 h, read-out: Minimum Inhibitory Concentration (MIC: µg/ml).
For test [9], the system named is E.coli GN5482. The test is described as above. Format: cell-based. The note with it: Escherichia coli; E.coli GN5482 (β-Lactamase-producing strain); Mueller Hinton agar, inoculum 10⁶ CFU/ml, 37°C, 16 hours; read-out: Minimum Inhibitory Concentration (MIC: µg/ml).
For test [10], the system named is E.coli NIHJ JC2. The test is described as above. Format: cell-based. The following applies: Escherichia coli, NIHJJC2; E.coli NIHJ JC2; Mueller Hinton agar, inoculum 10⁶ CFU/ml, 37°C, 16 hours; read-out: Minimum Inhibitory Concentration (MIC: µg/ml).
The subject of test [11] is K.oxytoca GN10650. The test is described as above. Format: cell-based. The note with it: Klebsiella oxytoca; K.oxytoca GN10650 (β-Lactamase-producing strain); Mueller Hinton agar, inoculum 10⁶ CFU/ml, 37°C, 16 hours; read-out: Minimum Inhibitory Concentration (MIC: µg/ml).
Test [12] deals with K.pneumoniae No. 42. Described as above. Type of test: cell-based. The following applies: Klebsiella pneumoniae; K.pneumoniae No. 42 (β-Lactamase-producing strain); Mueller Hinton agar, inoculum 10⁶ CFU/ml, 37°C, 16 hours; read-out: Minimum Inhibitory Concentration (MIC: µg/ml).
The test system of test [13] is K.pneumoniae PCI-602. The description is as above. Type of test: cell-based. The note with it: Klebsiella pneumoniae, PCI602; K.pneumoniae PCI-602; Mueller Hinton agar, inoculum 10⁶ CFU/ml, 37°C, 16 hours; read-out: Minimum Inhibitory Concentration (MIC: µg/ml).
Test [14] deals with M.luteus ATCC9341. The description is as above. The following applies: Micrococcus luteus; M.luteus ATCC9341; Mueller Hinton agar, inoculum 10⁶ CFU/ml, 37°C, 16 hours; read-out: Minimum Inhibitory Concentration (MIC: µg/ml). Type of test: cell-based.
Test [15] relates to M.morganii GN5407. The test is described as above. Format: cell-based. The note with it: Morganella morganii; M.morganii GN5407 (β-Lactamase-producing strain); Mueller Hinton agar, inoculum 10⁶ CFU/ml, 37°C, 16 hours; read-out: Minimum Inhibitory Concentration (MIC: µg/ml).
Test [16] deals with P.vulgaris HX-19. The description is as above. Format: cell-based. The note with it: Proteus vulgaris, HX19; P.vulgaris HX-19; Mueller Hinton agar, inoculum 10⁶ CFU/ml, 37°C, 16 hours; read-out: Minimum Inhibitory Concentration (MIC: µg/ml).
The subject of test [17] is P.vulgaris No. 33. The test is described as above. Format: cell-based. The note with it: Proteus vulgaris; P.vulgaris No. 33 (β-Lactamase-producing strain); Mueller Hinton agar, inoculum 10⁶ CFU/ml, 37°C, 16 hours; read-out: Minimum Inhibitory Concentration (MIC: µg/ml).
Test [18] has as its system Ps.aeruginosa AK 109. The description is as above. Format: cell-based. The following applies: Pseudomonas aeruginosa, AK109; Ps.aeruginosa AK 109; Mueller Hinton agar, inoculum 10⁶ CFU/ml, 37°C, 16 hours; read-out: Minimum Inhibitory Concentration (MIC: µg/ml).
Test [19] deals with Ps.aeruginosa AKR17. The test is described as above. Format: cell-based. The following applies: Pseudomonas aeruginosa; Ps.aeruginosa AKR17; Mueller Hinton agar, inoculum 10⁶ CFU/ml, 37°C, 16 hours; read-out: Minimum Inhibitory Concentration (MIC: µg/ml).
For test [20], the system named is Ps.aeruginosa IFO3445. The test is described as above. Type of test: cell-based. The note with it: Pseudomonas aeruginosa; Ps.aeruginosa IFO3445; Mueller Hinton agar, inoculum 10⁶ CFU/ml, 37°C, 16 hours; read-out: Minimum Inhibitory Concentration (MIC: µg/ml).
Test [21] concerns S.aureus 209P NIHJ-JC1. The test is described as above. Format: cell-based. The following applies: Staphylococcus aureus; S.aureus 209P NIHJ-JC1; Mueller Hinton agar, inoculum 10⁶ CFU/ml, 37°C, 16 hours; read-out: Minimum Inhibitory Concentration (MIC: µg/ml).
For test [22], the system named is S.aureus BB5703. Described as above. Type of test: cell-based. The note with it: Staphylococcus aureus; S.aureus BB5703; Mueller Hinton agar, inoculum 10⁶ CFU/ml, 37°C, 16 hours; read-out: Minimum Inhibitory Concentration (MIC: µg/ml).
Test [23] concerns S.aureus JS1. The test is described as above. The note with it: Staphylococcus aureus; S.aureus JS1 (β-Lactamase-producing strain); Mueller Hinton agar, inoculum 10⁶ CFU/ml, 37°C, 16 hours; read-out: Minimum Inhibitory Concentration (MIC: µg/ml). Type of test: cell-based.
Test [24] relates to S.epidermidis IAM12012. The description is as above. Format: cell-based. The following applies: Staphylococcus epidermidis; S.epidermidis IAM12012; Mueller Hinton agar, inoculum 10⁶ CFU/ml, 37°C, 16 hours; read-out: Minimum Inhibitory Concentration (MIC: µg/ml).
The subject of test [25] is S.marcescens IAM 1184. The test is described as above. Format: cell-based. The following applies: Serratia marcescens, IAM1184; S.marcescens IAM 1184; Mueller Hinton agar, inoculum 10⁶ CFU/ml, 37°C, 16 hours; read-out: Minimum Inhibitory Concentration (MIC: µg/ml).
Test [26] has as its system S.marcescens No. 16-2. Described as above. Type of test: cell-based. The following applies: Serratia marcescens, NO.162; S.marcescens No. 16-2 (β-Lactamase-producing strain); Mueller Hinton agar, inoculum 10⁶ CFU/ml, 37°C, 16 hours; read-out: Minimum Inhibitory Concentration (MIC: µg/ml).
Test [27] deals with Ps.cepacia 23. The test is described as above. Type of test: cell-based, Pseudomonas cepacia. The following applies: Burkholderia cepacia; Ps.cepacia 23; Mueller Hinton agar, inoculum 10⁶ CFU/ml, 37°C, 16 hours; read-out: Minimum Inhibitory Concentration (MIC: µg/ml).
Test [28] has as its system Ps.maltophilia GN 12873. Described as above. Type of test: cell-based, Pseudomonas maltophilia. The following applies: Stenotrophomonas maltophilia, GN12873; Ps.maltophilia GN 12873 (β-Lactamase-producing strain); Mueller Hinton agar, inoculum 10⁶ CFU/ml, 37°C, 16 hours; read-out: Minimum Inhibitory Concentration (MIC: µg/ml).

Converted amounts (≈) assume the structure as drawn.

On to `CO[C@@]1(NC(=O)Cc2cccs2)C(=O)N2C(C(=O)O)=C(COC(N)=O)CS[C@@H]21` [Cefoxitin, reference compound], for which the “Specific activity (unit/mg protein)” value in test [1] is 0.238 unit/mg protein.
Turning to `C#CCON=C(C(=O)NC1C(=O)N2C(C(=O)[O-])=C(C[n+]3ccc4cc(O)c(O)cc4c3)CS[C@H]12)c1csc(N)n1` (stereo partly shown) [Ex. 7, 7-[2-(2-aminothiazol-4-yl)-2-(2-propynyloxyimino)acetamido]-3-(6,7-dihydroxy-2-isoquinolio)methyl-3-cephem-4-carboxylate], the MIC in [2] is 0.2 µg/mL (≈ 0.344 µM); in test [3] it was 0.78 µg/mL (≈ 1.34 µM); in test [4], 50 µg/mL (≈ 86.1 µM); in test [5], 0.0125 µg/mL (≈ 0.0215 µM); in test [6], 0.2 µg/mL (≈ 0.344 µM); in test [7], 0.05 µg/mL (≈ 0.0861 µM). In addition, the MIC was under 0.006 µg/mL in test [8]; 0.78 µg/mL (≈ 1.34 µM) in [9]; 0.2 µg/mL (≈ 0.344 µM) in [10]; 1.56 µg/mL (≈ 2.69 µM) in test [11]; under 0.006 µg/mL in test [12]; under 0.006 µg/mL in test [13]. In addition, the MIC in test [14] was 0.2 µg/mL (≈ 0.344 µM); in [15] it was 0.05 µg/mL (≈ 0.0861 µM); in test [16] it was under 0.006 µg/mL; in [17] it was 0.05 µg/mL (≈ 0.0861 µM); in [18], 0.78 µg/mL (≈ 1.34 µM); in test [19], 100 µg/mL (≈ 172 µM). Also, the MIC was 0.78 µg/mL (≈ 1.34 µM) in test [20]; 1.56 µg/mL (≈ 2.69 µM) in test [21]; 6.25 µg/mL (≈ 10.8 µM) in test [22]; 50 µg/mL (≈ 86.1 µM) in [23]; 0.2 µg/mL (≈ 0.344 µM) in test [24]; under 0.006 µg/mL in test [25]. In addition, the results for the MIC in test [26], in test [27] and in [28] were 1.56 µg/mL (≈ 2.69 µM), 0.1 µg/mL (≈ 0.172 µM) and over 100 µg/mL, respectively.
`CC(C)(ON=C(C(=O)NC1C(=O)N2C(C(=O)[O-])=C(C[n+]3ccc4ccccc4c3)CSC12)c1csc(N)n1)C(=O)O` (stereo not drawn) [Reference Ex. 1, sodium 7-[2-(2-aminothiazol-4-yl)-2-(l-carboxylato-l-methylethoxyimino)acetamido]-3-(2-isoquinolinio)methyl-3-cephem-4-carboxylate, reference compound]: the MIC in test [2] is 25 µg/mL; in test [3] it was 0.2 µg/mL; in test [4] it was 50 µg/mL; in test [5] it was 0.2 µg/mL; in test [6], 1.56 µg/mL; in test [7], 0.1 µg/mL. The MIC in [8] worked out at 0.05 µg/mL; in test [9] it was 0.78 µg/mL; in test [10], 0.2 µg/mL; in test [11], 0.2 µg/mL; in test [12] it was 0.39 µg/mL; in [13], 0.0125 µg/mL. For the same compound, the MIC stood at 0.78 µg/mL in [14]; 0.05 µg/mL in test [15]; 0.0125 µg/mL in [16]; 0.1 µg/mL in test [17]; 3.12 µg/mL in test [18]; 100 µg/mL in [19]. Moreover, the MIC amounted to 3.12 µg/mL in [20]; 6.25 µg/mL in [21]; 25 µg/mL in test [22]; 50 µg/mL in test [23]; 1.56 µg/mL in test [24]; 0.05 µg/mL in [25]. Further, the results for the MIC in test [26], in test [27] and in test [28] were 1.56 µg/mL, 6.25 µg/mL and 12.5 µg/mL, respectively.
